{"source": "patent US11060066B2", "about": "“Human pluripotent stem cell-based models for predictive developmental neural toxicity” (priority 2014, dated 2021)", "tested_on": "3D neural constructs", "type": "cell-based, human", "protocol": "For toxicity screening experiments, cells were seeded as described above (Examples 1 and 2), but with 65,000 cells/well for ECs+MSCs (also 5:1 ratio) and 15,000 cells/well for microglia/macrophage precursors. Neural constructs were treated with non-toxic or toxic compounds starting at day 14, with media exchanged every 2 days. The following screening protocol was developed by the Thomson lab. Toxic chemicals (FIG. 10E) were chosen based on previous literature support for neurotoxicity (Adams et al., Neurotoxicol Teratol 15(3):193-202 (1993); Cooper et al., Science 280(5369):1603-1607 (1998); Crofton et al., ALTEX-Altern Anim Exp 28(1):9-15 (2011); Eskes et al. (2003); Grandjean et al., Lancet Neurol. 13:330 (2014); Lidsky (2003); Radio et al., Neurotoxicol Teratol 32(1):25-35 (2010); Zurich (2002)). […]\nAfter reverse transcription, RNA is removed by RNaseA and RNaseH treatment. […] The indexed cDNA libraries were pooled and sequenced on an Illumina HiSeq2500 with a single 51 bp read and a 10 bp index read.\nRSEM expected read counts for each gene were determined by median normalization (utilizing the median normalization function within EB Seq—version 1.5.3) (Leng et al., Bioinformatics 29(8):1035-1043 (2013)). […]"}
{"smiles": "CCCCCCCC/C=C\\CCCCCCCC(=O)O", "note": "[oleic acid]", "values": [{"measurement": "SVM prediction as toxic or non-toxic (control)", "value": "neurotoxin"}, {"measurement": "SVM probability of being toxic (ranking of blinded compounds)", "setting": "human", "value": "higher probability of being toxic than L-741,626 and Ouabain"}]}
